Results: ChEMBL document CHEMBL1123398, “Conformationally restricted inhibitors of angiotensin converting enzyme: synthesis and computations” (J Med Chem, 1986)

Key:
[1] = target: T1, Angiotensin-converting enzyme (Homo sapiens, UniProt P12821); experiment: Inhibitory concentration against Angiotensin I converting enzyme
[2] = target: T1, Angiotensin-converting enzyme; experiment: Inhibitory concentration (isomer A) against Angiotensin I converting enzyme
[3] = target: T1, Angiotensin-converting enzyme; experiment: Inhibitory concentration (isomer B) against Angiotensin I converting enzyme
[4] = target: T1, Angiotensin-converting enzyme; experiment: Inhibitory concentration against Angiotensin I converting enzyme; IA is Inactive with 0% inhibition at 3.3 x 10e-4;

T1 sequence (P12821 whole entry): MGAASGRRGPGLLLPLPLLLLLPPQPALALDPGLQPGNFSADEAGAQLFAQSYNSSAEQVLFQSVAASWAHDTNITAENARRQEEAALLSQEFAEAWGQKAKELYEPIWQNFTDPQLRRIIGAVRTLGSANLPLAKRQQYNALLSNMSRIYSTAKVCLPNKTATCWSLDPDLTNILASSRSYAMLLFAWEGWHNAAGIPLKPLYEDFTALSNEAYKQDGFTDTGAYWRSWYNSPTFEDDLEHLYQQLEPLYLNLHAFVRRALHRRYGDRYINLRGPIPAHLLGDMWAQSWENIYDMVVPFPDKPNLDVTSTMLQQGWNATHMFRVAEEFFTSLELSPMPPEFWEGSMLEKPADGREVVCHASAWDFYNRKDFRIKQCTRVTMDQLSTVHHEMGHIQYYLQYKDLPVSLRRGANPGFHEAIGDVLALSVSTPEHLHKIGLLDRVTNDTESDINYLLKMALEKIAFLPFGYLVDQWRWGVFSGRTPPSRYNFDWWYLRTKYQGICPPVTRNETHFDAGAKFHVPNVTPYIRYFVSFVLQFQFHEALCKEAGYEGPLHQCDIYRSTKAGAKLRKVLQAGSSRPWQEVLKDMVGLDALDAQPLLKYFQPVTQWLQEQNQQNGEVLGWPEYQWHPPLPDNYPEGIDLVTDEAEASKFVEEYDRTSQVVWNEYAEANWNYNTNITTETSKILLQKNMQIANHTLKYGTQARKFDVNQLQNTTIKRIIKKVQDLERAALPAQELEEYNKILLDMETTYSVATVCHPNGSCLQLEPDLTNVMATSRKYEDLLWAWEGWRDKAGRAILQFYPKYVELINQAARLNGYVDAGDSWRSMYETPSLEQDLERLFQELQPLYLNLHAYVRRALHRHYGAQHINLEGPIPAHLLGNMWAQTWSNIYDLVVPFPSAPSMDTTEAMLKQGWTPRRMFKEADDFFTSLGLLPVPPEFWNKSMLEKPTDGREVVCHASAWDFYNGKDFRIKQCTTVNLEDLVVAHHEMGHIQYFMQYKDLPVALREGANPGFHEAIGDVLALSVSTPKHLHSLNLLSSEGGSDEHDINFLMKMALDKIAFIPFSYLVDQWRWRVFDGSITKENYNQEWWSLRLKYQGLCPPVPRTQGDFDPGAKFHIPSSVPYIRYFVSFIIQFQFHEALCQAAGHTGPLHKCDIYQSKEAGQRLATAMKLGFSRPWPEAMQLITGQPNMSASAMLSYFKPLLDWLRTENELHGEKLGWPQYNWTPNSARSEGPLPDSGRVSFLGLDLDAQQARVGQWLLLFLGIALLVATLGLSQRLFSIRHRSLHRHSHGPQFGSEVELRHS

IC50 [1] [µM] | IC50 [2] [µM] | IC50 [3] [µM] | IC50 [4] | Structure (SMILES)
1700 | – | – | – | NC1CCCN(CC(=O)O)C1=O (stereo unspecified)
480 | – | – | – | NC1CCCCN(CC(=O)O)C1=O (stereo unspecified)
– | 12 | 19 | – | O=C(O)CN1CCC(NC(CCc2ccccc2)C(=O)O)C1=O (stereo unspecified)
– | 1.3 | 0.0081 | – | O=C(O)CN1CCCCCCC(NC(CCc2ccccc2)C(=O)O)C1=O (stereo unspecified)
– | 1.7 | 0.0048 | – | O=C(O)CN1CCCCCC(NC(CCc2ccccc2)C(=O)O)C1=O (stereo unspecified)
– | 0.43 | 1.7 | – | O=C(O)CN1CCCC(NC(CCc2ccccc2)C(=O)O)C1=O (stereo unspecified)
– | – | – | Not Active | NC1CCN(CC(=O)O)C1=O (stereo unspecified)
– | 0.7 | 0.019 | – | O=C(O)CN1CCCCC(NC(CCc2ccccc2)C(=O)O)C1=O (stereo unspecified)
– | – | 0.002 | – | O=C(O)CN1CCCCC[C@H](N[C@@H](CCc2ccccc2)C(=O)O)C1=O
440 | – | – | – | NC1CCCCCN(CC(=O)O)C1=O (stereo unspecified)
– | – | 0.092 | – | O=C(O)CN1CCCCC[C@@H](N[C@H](CCc2ccccc2)C(=O)O)C1=O
